Source: patent publication US9493524B2, “Methods for treatment of stroke or cerebrovascular accidents using an ETB receptor agonist” (MIDWESTERN UNIVERSITY, priority 2007, dated 2016)

Key:
Type in all cases: in vivo, Sprague-Dawley rats
[1] = test system: urethane anesthetized rat; assay: Heart rate recording; conditions: IRL-1620 5 μg/kg; for heart rate: mean±SEM, in bpm (unit assumed)
Protocol: (§1) Male Sprague-Dawley rats weighing 323±4 grams (g) were anesthetized with urethane (ethyl carbamate, Sigma Aldrich, St. Louis, Mo.) dissolved in isotonic saline (0.9% NaCl, Hospira, Inc., Lake Forest, Ill.). The rats were administered a dose of 0.15 g per 100 g body weight via intraperitoneal (i.p.) injection.
(§2) Blood Pressure and Heart Rate: The femoral vein and artery were cannulated. The arterial cannula was connected to a Gould P23 ID pressure transducer for recording the blood pressure on a Grass P7D polygraph through a 7PI preamplifier. The heart rate was recorded through a 7P4B Grass tachograph, triggered from blood pressure signals. Drugs were administered via the venous cannula.
(§3) The rats were randomly selected for various studies. Following surgery the rats were allowed to stabilize for 30 minutes and a 15 minutes baseline recording of all parameters (blood pressure, heart rate, cerebral blood flow, and renal blood flow) was obtained prior to the administration of the pretreatment followed by IRL-1620 (Suc-[Glu 9, Ala 11,15], American Peptide Co, Inc., Sunnyville, Calif.) or ET-1 (Ala 1,3,11,15, RBI Sigma, Natick, Mass.). BQ-788, a selective endothelin B antagonist, is the sodium salt of N-cis-2,6-dimethylpiperidinocarbonyl-L-gamma-methylleucyl-D-1-methoxycarbonyl triptophanyl-DNIe (see Proc. Natl. Acad. Sci. USA, 91, pp. 4892-4896 (1994)) BMS is BMS 182, 874, which is a selective endothelin A antagonist having a structure
(§4) Group 1: Animals (n=4) were pretreated with saline 15 minutes (min) prior to administration of IRL-1620 (5 μg/kg, i.v.).
(§5) Group 2: Animals (n=4) were pretreated with BMS (5 mg/kg, i.v.) 15 min prior to administration of IRL-1620 (5 μg/kg, i.v.).
(§6) Group 3: Animals (n=4) were pretreated with BMS (15 mg/kg, i.v.) 15 min prior to administration of IRL-1620 (5 μg/kg, i.v.).
Group 4: Animals (n=4) were pretreated with BQ788 (1 μg/kg, i.v.) 15 min prior to administration of IRL-1620 (5 μg/kg, i.v.). […]
(§7) Blood pressure, heart rate, cerebral blood perfusion, and renal blood perfusion all were recorded for 2 hours following the final injection. Blood gases were analyzed prior to administration of any drugs, and at 60 and 120 min following administration of IRL-1620 or ET-1. At the end of each experiment, the animals were euthanized with an overdose of urethane i.v. In the figures, all data values are presented as mean±SEM. One-sample t-tests and one-way ANOVAs were used to test the differences within and between the groups. A P value of P<0.05 was considered significant.

[2] = test system: urethane anesthetized rat; assay: Cerebral blood perfusion by Laser Doppler Flowmetry
Protocol: as §1
Cerebral Perfusion: A burr hole was drilled into the rat skull about 2 millimeters (mm) to the left of midline. Cerebrovascular perfusion was measured via a fiber optic probe (PF407) applied to the surface of the rat brain. The probe was connected to a Periflux PF2b 4000 Laser Doppler Flowmetry unit (Perimed, Stockholm, Sweden).
as §3, §4, §5, §6
(§8) Group 4: Animals (n=4) were pretreated with BQ788 (1 μg/kg, i.v.) 15 min prior to administration of IRL-1620 (5 μg/kg, i.v.).
(§9) Group 1: Animals (n=4) were pretreated with saline 15 min prior to administration of ET-1 (0.75 μg/kg, i.v.).
(§10) Group 2: Animals (n=4) were pretreated with BMS (5 mg/kg, i.v.) 15 min prior to administration of ET-1 (0.75 μg/kg, i.v.).
(§11) Group 3: Animals (n=4) were pretreated with BMS (15 mg/kg, i.v.) 15 min prior to administration of ET-1 (0.75 μg/kg, i.v.).
(§12) Group 4: Animals (n=4) were pretreated with BQ788 (1 μg/kg, i.v.) 15 min prior to administration of ET-1 (0.75 μg/kg, i.v.).
as §7

[3] = test system: urethane anesthetized rat; assay: Blood pressure / mean arterial pressure recording; conditions: i.v.; for decrease in mean arterial pressure: IRL-1620 5.0 μg/kg; for decrease in mean arterial pressure / increase in mean arterial pressure (subsequent hypertension): FIG. 11
Protocol: as §1, §2, §3, §4, §5, §6, §8, §9, §10, §11, §12, §7

[4] = test system: urethane anesthetized rat; assay: Renal blood perfusion by Laser Doppler Flowmetry; conditions: i.v.
Protocol: as §1
Renal Perfusion: The right kidney was dissected retroperitoneally. Renal perfusion was measured via a fiber optic probe (PF408) applied to the surface of the rat kidney. The probe was connected to a Periflux PF2b 4000 Laser Doppler Flowmetry unit (Perimed, Stockholm, Sweden).
as §3, §4, §5, §6, §8, §9, §10, §11, §12, §7

[5] = test system: urethane anesthetized rat; assay: Arterial blood gas analysis; conditions: IRL-1620 5 μg/kg, i.v., ET-1 0.75 μg/kg
Protocol: as §1
Blood Gas Analysis: Arterial blood gases were monitored to determine the effects on pH, pCO2, and pO2. Blood was drawn from the arteriole cannula and analyzed using a GEM Premier 3000 unit (Instrument Laboratory, Lexington, Mass.).
as §7

[6] = time 0 min (prior to any drugs)

Cc1noc(NS(=O)(=O)c2cccc3c(N(C)C)cccc23)c1C [BMS]
heart rate ([1]; 5 mg/kg BMS pretreatment, i.v., time 0 min): 339 ± 6
heart rate ([1]; 5 mg/kg BMS pretreatment, i.v., time 1 min): 365 ± 4
heart rate ([1]; 5 mg/kg BMS pretreatment, i.v., time 5 min): 357 ± 13
heart rate ([1]; 5 mg/kg BMS pretreatment, i.v., time 10 min): 345 ± 14
heart rate ([1]; 5 mg/kg BMS pretreatment, i.v., time 15 min): 345 ± 14
heart rate ([1]; 5 mg/kg BMS pretreatment, i.v., time 30 min): 356 ± 12
heart rate ([1]; 5 mg/kg BMS pretreatment, i.v., time 45 min): 367 ± 14
heart rate ([1]; 5 mg/kg BMS pretreatment, i.v., time 60 min): 370 ± 14
heart rate ([1]; 5 mg/kg BMS pretreatment, i.v., time 90 min): 350 ± 9
heart rate ([1]; 5 mg/kg BMS pretreatment, i.v., time 120 min): 327 ± 12
heart rate ([1]; 15 mg/kg BMS pretreatment, i.v., time 0 min): 405 ± 11
heart rate ([1]; 15 mg/kg BMS pretreatment, i.v., time 1 min): 425 ± 11
heart rate ([1]; 15 mg/kg BMS pretreatment, i.v., time 5 min): 382 ± 13
heart rate ([1]; 15 mg/kg BMS pretreatment, i.v., time 10 min): 380 ± 11
heart rate ([1]; 15 mg/kg BMS pretreatment, i.v., time 15 min): 384 ± 11
heart rate ([1]; 15 mg/kg BMS pretreatment, i.v., time 30 min): 387 ± 17
heart rate ([1]; 15 mg/kg BMS pretreatment, i.v., time 45 min): 387 ± 21
heart rate ([1]; 15 mg/kg BMS pretreatment, i.v., time 60 min): 395 ± 19
heart rate ([1]; 15 mg/kg BMS pretreatment, i.v., time 90 min): 393 ± 21
heart rate ([1]; 15 mg/kg BMS pretreatment, i.v., time 120 min): 386 ± 18
effect of pretreatment on the effect of IRL-1620 on heart rate (Table 1) ([1]; BMS 5 and 15 mg/kg, BQ788, i.v.): increase
effect of pretreatment on the effect of ET-1 on cerebral blood flow ([2]; BMS 5 and 15 mg/kg, i.v., BQ788 1 μg/kg, ET-1 0.75 μg/kg, FIG. 7): no significant change
transient increase in cerebral blood flow ([2]; high dose of BMS (15 mg/kg, i.v.) pretreatment, 1 minute after administration of IRL-1620 5 μg/kg, FIG. 6): 37.99%
effect of pretreatment on the effect of ET-1 on mean arterial pressure ([3]; BMS 5 and 15 mg/kg, BQ788 1 μg/kg, ET-1 0.75 μg/kg, FIG. 13): failed to alter
effect of pretreatment on the effect of IRL-1620 on mean arterial pressure ([3]; BMS 5 and 15 mg/kg, BQ788 1 μg/kg, IRL-1620 5 μg/kg, FIG. 12): transient hypotension similar to that observed in animals pretreated with saline
effect of pretreatment on the effect of ET-1 on renal blood flow ([4]; BMS 5 and 15 mg/kg, BQ788 1 μg/kg, ET-1 0.75 μg/kg, FIG. 10): No pretreatment significantly altered
effect of pretreatment on the effect of IRL-1620 on renal blood flow ([4]; BMS 5 and 15 mg/kg, BQ788 1 μg/kg, IRL-1620 5 μg/kg, FIG. 9): sustained decrease in renal blood flow up to 120 minutes

ET-1: endothelin-1 (ET-1), a 21-amino acid peptide (ASASSLMDKEAVYFAHLDIIW)
effect on heart rate (Table 1) ([1]; i.v. after saline, ET-1 with or without pretreatment): No significant alteration
change in cerebral blood flow ([2]; ET-1 0.75 μg/kg, i.v., FIG. 5): no significant change
decrease in mean arterial pressure ([3]; at 0.2 minute, ET-1 0.75 μg/kg): 43.16%
decrease in mean arterial pressure ([3]; at 0.5 minute, ET-1 0.75 μg/kg): 37.80%
decrease in mean arterial pressure ([3]; at 1 minute, ET-1 0.75 μg/kg): 19.30%
increase in mean arterial pressure (subsequent hypertension) ([3]; at 5 minutes, ET-1 0.75 μg/kg): 12.72%
increase in mean arterial pressure (subsequent hypertension) ([3]; at 10 minutes, ET-1 0.75 μg/kg): 25.56%
increase in mean arterial pressure (subsequent hypertension) ([3]; at 15 minutes, ET-1 0.75 μg/kg): 28.49%
effect on arterial blood gases (text to Table 2) [5]: Neither IRL-1620 nor ET-1 significantly affected blood gases
arterial blood pCO2 [5, 6]: 34 ± 3
arterial blood pH [5, 6]: 7.32 ± 0.01
arterial blood pO2 [5, 6]: 118 ± 4
arterial blood pCO2 ([5]; time 60 min): 40 ± 4
arterial blood pH ([5]; time 60 min): 7.29 ± 0.01
arterial blood pO2 ([5]; time 60 min): 110 ± 2
arterial blood pCO2 ([5]; time 120 min): 38 ± 4
arterial blood pH ([5]; time 120 min): 7.27 ± 0.01
arterial blood pO2 ([5]; time 120 min): 116 ± 5
persistence of the decrease in renal blood flow ([4]; IRL-1620 5 μg/kg, ET-1 0.75 μg/kg, FIG. 8): approximately 15 minutes
decrease in renal blood flow ([4]; at 1 minute, IRL-1620 5 μg/kg, ET-1 0.75 μg/kg, FIG. 8): 40.27%
decrease in renal blood flow ([4]; at 5 minutes, IRL-1620 5 μg/kg, ET-1 0.75 μg/kg, FIG. 8): 50.10%
decrease in renal blood flow ([4]; at 10 minutes, IRL-1620 5 μg/kg, ET-1 0.75 μg/kg, FIG. 8): 26.33%
